In this experiment the target is EmrE (Escherichia coli, UniProt P23895). Description: biochemical.
EmrE, sequence (P23895 whole entry): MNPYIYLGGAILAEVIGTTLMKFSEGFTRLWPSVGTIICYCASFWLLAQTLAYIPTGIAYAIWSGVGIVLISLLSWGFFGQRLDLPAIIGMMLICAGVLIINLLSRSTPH

One may read the Kd as a measure of binding affinity in units of concentration. Low readings indicate tighter binding, high ones weaker binding. `c1ccc([P+](c2ccccc2)(c2ccccc2)c2ccccc2)cc1` [TPP^+] returned a Kd of 0.12 ± 0.012 µM.

Source of the values: PMC3253143 (Nature, 2011).
